From US6492381B1, “Tricyclic carbamate compounds useful for inhibition of G-protein function and for treatment of proliferative diseases” (Schering Corp., priority 1993, dated 2002) come the findings set out here.

Read-outs that look alike come from different tables or passages of the source. Where only a bound is given, the exact number is not on record here.

Data set [1] relates to T24-BAG4 human bladder carcinoma cells expressing an activated H-ras gene. Nature of the data set: Cell Mat assay: inhibition of tumor cell growth. The data set is classed as cell-based. The conditions noted are these: for IC50: tIC50. As for the experimental part: (§1) Normal human HEPM fibroblasts were planted in 3.5 cm dishes at a density of 5×10^4 cells/dish in 2 ml growth medium, and incubated for 3-5 d to achieve confluence. Medium was aspirated from each dish and the indicator tumor cells, T24-BAG4 human bladder carcinoma cells expressing an activated H-ras gene, were planted on top of the fibroblast monolayer at a density of 2×10^3cells/dish in 2 ml growth medium, and allowed to attach overnight. Compound-induced colony inhibition was assayed by addition of serial dilutions of compound directly to the growth medium 24 h after tumor cell planting, and incubating cells for an additional 14 d to allow colony formation. Assays were terminated by rinsing monolayers twice with phosphate-buffered saline (PBS), fixing the monolayers with a 1% glutaraldehyde solution in PBS, then visualizing tumor cells by staining with X-Gal (Price, J., et al., Lineage analysis in the vertebrate nervous system by retrovirus-mediated gene transfer, Proc. Natl. Acad. Sci.84, 156-160(1987)). […] Both IC50 values were obtained by determining the density of tumor cells and mat cells by visual inspection and enumeration of cells per colony and the number of colonies under the microscope. The therapeutic index of the compound was quantitatively expressed as the ratio of mIC50/tIC50, with values greater than one indicative of tumor target specificity.

The test system of data set [2] is Ras-CVLS processing in COS monkey kidney cells. As to the kind of experiment: Cell-based assay: Ras-CVLS processing in transfected COS cells (immunoblot). As to conditions: Primates; inhibition of Ras-CVLS processing in Ras-transfected COS cells. An excerpt:
2. Cell-Based Assay: Transient expression of val^12-Ha-Ras-CVLS and val^12-Ha-Ras-CVLL in COS monkey kidney cells: Effect of farnesyl protein transferase inhibitors on Ras processing and on disordered cell growth induced by transforming Ras.
COS monkey kidney cells were transfected by electroporation with the plasmid pSV-SPORT (Gibco/BRL) containing a cDNA insert encoding either Ras-CVLS or Ras-CVLL, leading to transient overexpression of a Ras substrate for either farnesyl protein transferase or geranylgeranyl protein transferase I, respectively (see above).
Following electroporation, cells were plated into 6-well tissue culture dishes containing 1.5 ml of Dulbecco's-modified Eagle's media (GIBCO, Inc.) supplemented with 10% fetal calf serum and the appropriate farnesyl protein transferase inhibitors. After 24 hours, media was removed and fresh media containing the appropriate drugs was re-added.
48 hours after electroporation cells were examined under the microscope to monitor disordered cell growth induced by transforming Ras. Cells expressing transforming Ras become more rounded and refractile and overgrow the monolayer, reminiscent of the transformed phenotype. Cells were then photographed, washed twice with 1 ml of cold phosphate-buffered saline (PBS) and removed from the dish by scraping with a rubber policeman into 1 ml of a buffer containing 25 mM Tris, pH 8.0; 1 mM ethylenediamine tetraacetic acid; 1 mM phenylmethylsulfonyl fluoride; 50 μM leupeptin; and 0.1 μM pepstatin. Cells were lysed by homogenization and cell debris was removed by centrifugation at 2000×g for 10 min.
Cellular protein was precipitated by addition of ice-cold trichloroacetic acid and redissolved in 100 μl of SDS-electrophoresis sample buffer. Samples (5-10 μl) were loaded onto 14% polyacrylamide minigels (Novex, Inc.) and electrophoresed until the tracking dye neared the bottom of the gel. Proteins resolved on the gels were electroblotted onto nitrocellulose membranes for immunodetection.
Membranes were blocked by incubation overnight at 4° C. in PBS containing 2.5% dried milk and 0.5% Tween-20 and then incubated with a Ras-specific monoclonal antibody, Y13-259 (Furth, M. E., et al., (1982), Monoclonal antibodies to the p21 products of the transforming gene of Harvey murine sarcome virus and of the cellular ras gene family, J. Virol. 43: 294-304), in PBS containing 1% fetal calf serum for one hour at room temperature. After washing, membranes were incubated for one hour at room temperature with a 1:5000 dilution of secondary antibody, rabbit anti-rat IgG conjugated to horseradish peroxidase, in PBS containing 1% fetal calf serum. The presence of processed and unprocessed Ras-CVLS or Ras-CVLL was detected using a calorimetric peroxidase reagent (4-chloro-1-naphthol) as described by the manufacturer (Bio-Rad).

The target in data set [3] is T1, farnesyl protein transferase (FPT) (Rattus norvegicus, UniProt Q02293+Q04631).
T1 construct: were partially purified from rat brain by ammonium sulfate fractionation followed by Q-Sepharose; from tissue; host or cells: rat brain
As to the kind of experiment: In vitro enzyme assay: inhibition of farnesyl protein transferase. The class given is biochemical. As to the method: (§2) 1. In vitro enzyme assays: Inhibition of farnesyl protein transferase and geranylgeranyl protein transferase.
Human farnesyl protein transferase was also expressed in E. coli, using cDNA clones encoding both the α and β subunits. […] Two forms of val^12-Ha-Ras protein were prepared as substrates for these enzymes, differing in their carboxy terminal sequence. One form terminated in cysteine-valine-leucine-serine (Ras-CVLS) the other in cystein-valine-leucine-leucine (Ras-CVLL). Ras-CVLS is a substrate for the farnesyl protein transferase while Ras-CVLL is a substrate for geranylgeranyl protein transferase I. The cDNAs encoding these proteins were constructed so that the proteins contain an amino-terminal extension of 6 histidine residues. Both proteins were expressed in Escherichia coli and purified using metal chelate affinity chromatography. The radiolabelled isoprenyl pyrophosphate substrates, [^3H]farnesyl pyrophosphate and [^3H]geranylgeranyl pyrophosphate, were purchased from DuPont/New England Nuclear.
The reaction was allowed to proceed for 30 minutes at room temperature and then stopped with 0.5 ml of 4% sodium dodecyl sulfate (SDS) followed by 0.5 ml of cold 30% trichloracetic acid (TCA). Samples were allowed to sit on ice for 45 minutes and precipitated Ras protein was then collected on GF/C filter paper mats using a Brandel cell harvester. […] Percent inhibition was calculated relative to the DMSO vehicle control.

Data set [4] deals with Normal human HEPM fibroblasts. Nature of the data set: Cell Mat assay: inhibition of normal cell growth. The class given is cell-based. The conditions noted are these: Homo sapiens, Fibroblast, mIC50, normal cell monolayer. As for the experimental part:
as §1

Data set [5] concerns the target T2, geranylgeranyl protein transferase (GGPT) I (Rattus norvegicus, UniProt P53610+Q04631).
T2 construct: were partially purified from rat brain by ammonium sulfate fractionation followed by Q-Sepharose; from tissue; host or cells: rat brain
Nature of the data set: In vitro enzyme assay: inhibition of geranylgeranyl protein transferase I. The data set is classed as biochemical.
Excerpt: as §2
Both farnesyl protein transferase (FPT) and geranylgeranyl protein transferase (GGPT) I were partially purified from rat brain by ammonium sulfate fractionation followed by Q-Sepharose (Pharmacia, Inc.) anion exchange chromatography essentially as described by Yokoyama et al (Yokoyama, K., et al., (1991). A protein geranylgeranyltransferase from bovine brain: Implications for protein prenylation specificity, Proc. Natl. Acad. Sci USA 88: 5302-5306, the disclosure of which is incorporated herein by reference thereto). Human farnesyl protein transferase was also expressed in E. coli, using cDNA clones encoding both the α and β subunits. The methods used were similar to those published (Omer, C. et al., (1993), Characterization of recombinant human farnesyl protein transferase: Cloning, expression, farnesyl diphosphate binding, and functional homology with yeast prenyl-protein transferase, Biochemistry 32:5167-5176). Human farnesyl protein transferase was partially-purified from the soluble protein fraction of E. coli as described above. the tricyclic farnesyl protein transferase inhibitors disclosed herein inhibited both human and rat enzyme with similar potencies. Two forms of val^12-Ha-Ras protein were prepared as substrates for these enzymes, differing in their carboxy terminal sequence. One form terminated in cysteine-valine-leucine-serine (Ras-CVLS) the other in cystein-valine-leucine-leucine (Ras-CVLL). Ras-CVLS is a substrate for the farnesyl protein transferase while Ras-CVLL is a substrate for geranylgeranyl protein transferase I. The cDNAs encoding these proteins were constructed so that the proteins contain an amino-terminal extension of 6 histidine residues. Both proteins were expressed in Escherichia coli and purified using metal chelate affinity chromatography. The radiolabelled isoprenyl pyrophosphate substrates, [^3H]farnesyl pyrophosphate and [^3H]geranylgeranyl pyrophosphate, were purchased from DuPont/New England Nuclear.
The geranylgeranyl protein transferase I assay was essentially identical to the farnesyl protein transferase assay described above, with two exceptions: [^3H]geranylgeranylpyrophosphate replaced farnesyl pyrophosphate as the isoprenoid donor and Ras-CVLL was the protein acceptor. This is similar to the assay reported by Casey et al (Casey, P. J., et al., (1991), Enzymatic modification of proteins with a geranylgeranyl isoprenoid, Proc. Natl. Acad. Sci, USA 88: 8631-8635, the disclosure of which is incorporated herein by reference thereto).

The mark [6] stands for this setting: Ras-CVLS farnesylation, partially purified rat brain FPT, read-out: FPT IC50.

Regarding `CCOC(=O)N1CCN(C2c3ccc(Cl)cc3CCc3cccnc32)CC1` (stereo not shown) [Compound 550.00, Ethyl 4-(8-chloro-6,11-dihydro-11H-benzo[5,6]cyclohepta[1,2-b]pyridin-11-yl)-1-piperazinecarboxylate], the IC50 in data set [1] (Homo sapiens) is 18 µM; in data set [1], 25 µM; in data set [2], above 20 µM; in data set [3] (setting [6]), 7.2 µM; in data set [4] it was above 50 µM.
Consider `O=C(Oc1ccccc1)N1CCC(=C2c3ccc(Cl)cc3CCc3cccnc32)CC1` [Compound 565.00], for which the results for the IC50 in data set [2] and in data set [3] (setting [6]) were 6.7 µM and 0.84 µM, respectively.
With `O=C(Oc1cccnc1)N1CCN([C@@H]2c3ccc(Cl)cc3CCc3cccnc32)CC1` [Compound 600.00, (+) 3-pyridyl 4-(8-chloro-6,11-dihydro-5H-benzo[5,6]-cyclohepta[1,2-b]pyridin-11(R)-yl)-1-piperazine Carboxylate], the IC50 was found to be 12.5 µM in data set [1] (Homo sapiens), 6.9 µM in data set [2], 1.28 µM in data set [3] and 50 µM in data set [4].
For `CCSC(=O)N1CCC(=C2c3ccc(Cl)cc3CCc3cccnc32)CC1` [Compound 500.00], the “selective antiproliferative activity against Ras-transformed cells versus normal cells” value (from here on “selective antiproliferative activity”) in data set [1] is on record as “no”. The IC50 stood at 25 µM in data set [1] (Homo sapiens), 22 µM in data set [2], 1.6 µM in data set [3] (setting [6]) and 25 µM in data set [4]. For the same molecule, the “selective for FPT inhibition (versus GGPT)” value in data set [5] (FPT versus GGPT) is “at least 31 fold”. The inhibition at 50 µM in data set [5] (at 50 μM) was 7%.
Turning to `O=C(Oc1ccccc1)N1CCN(C2c3ccc(Cl)cc3CCc3cccnc32)CC1` (stereo not shown) [Compound 612.00], the “selective antiproliferative activity” value in data set [1] is given as “little”. Besides, the IC50 was 50 µM in data set [1] (Homo sapiens), 4.8 µM in data set [2], 0.8 µM in data set [3] and above 50 µM in data set [4].
As to `O=C(Sc1ccccc1)N1CCC(=C2c3ccc(Cl)cc3CCc3cccnc32)CC1` [Compound 595.00, 4-(8-chloro-5,6-dihydro-11H-benzo[5,6]cyclohepta[1,2-b]-pyridin-11ylidene)-1-piperinecarbothioic Acid, S-phenyl Ester], the melting point lay in the range of 175 to 177 °C. Besides, the IC50 in data set [1] (Homo sapiens) came out at 18 µM. Further, in data set [2], the IC50 came out at 5.1 µM. In addition, in data set [4], the IC50 was above 50 µM.
`CCOC(=O)N1CCC(C2c3ccc(Cl)cc3CCc3cccnc32)CC1` (stereo not shown) [Compound 618.00]: the “selective antiproliferative activity” value in data set [1] is “little”. Also, the IC50 is above 50 µM in data set [1] (Homo sapiens); above 50 µM in data set [5] (Ras-CVLL as acceptor, read-out: GGPT IC 50); 20.5 µM in data set [2]; 1.22 µM in data set [3] (setting [6]); above 50 µM in data set [4].
Regarding `CCOC(=O)N1CCC(C2c3ccc(Cl)cc3C=Cc3ccc[n+]([O-])c32)CC1` (stereo not shown), the melting point lay in the range of 78.6 to 89.4 °C.
`CCOC(=O)N1CCC(=C2c3ccc(Cl)cc3CCc3c(On4nnc5ccccc54)ccnc32)CC1` [Compound 654.00, Ethyl 4-[4-[(1H-benzotriazol-1-yl)oxy]-8-chloro-5,6-dihydro-11H-benzo[5,6]cyclohepta[1,2-b]pyridin-11-ylidene]-1-piperidine Carbamate] returned a melting point of 181.5 to 183.9 °C. Also, the IC50 in data set [3] (setting [6]) was 11.6 µM.
In the case of `CC(C)COC(=O)N1CCC(=C2c3ccc(Cl)cc3CCc3cccnc32)CC1` [Compound 575.00], the IC50 in data set [1] (Homo sapiens) is 37 µM; in data set [2] it was 9.9 µM; in data set [3] (setting [6]), 4.4 µM; in data set [4] it was above 50 µM.
For `O=C(Oc1cccnc1)N1CCN([C@H]2c3ccc(Cl)cc3CCc3cccnc32)CC1` [Compound 608.00, (−) 3-pyridyl 4-(8-chloro-6,11-dihydro-5H-benzo[5,6]-cyclohepta[1,2-b]pyridin-11(S)-yl)-1-piperazinecarboxylate], the IC50 in data set [1] (Homo sapiens) was 37 µM; in data set [2], 3.9 µM; in data set [3], 0.82 µM; in data set [4] it was above 50 µM.
In turn, `O=C(Oc1cccnc1)N1CCC(C2c3ccc(Cl)cc3C=Cc3cccnc32)CC1` (stereo not shown) returned a melting point of 102.1 to 103.9 °C.
For the molecule `O=C(Oc1cccnc1)N1CCN(C2c3ccc(Cl)cc3CCc3cccnc32)CC1` (stereo not shown) [Compound 610.00, 3-pyridyl 4-(8-chloro-6,11-dihydro-5H-benzo[5,6]-cyclohepta[1,2-b]pyridin-11-yl)-1-piperazinecarboxylate], the IC50 was 3 µM in data set [2] and 0.5 µM in data set [3].
For `CN1CCC(OC(=O)N2CCN(C3c4ccc(Cl)cc4CCc4cc(Br)cnc43)CC2)CC1` (stereo not shown) [Compound 803.00], the values for the IC50 in data set [2] and in data set [3] (setting [6]) were above 5 µM and 0.31 µM, respectively.
